Source: article PMC11751314, “Engineering of acyl ligase domain in non-ribosomal peptide synthetases to change fatty acid moieties of lipopeptides” (Communications Chemistry, 2025)

What was measured:
[1] = target: T1, ItuAL_WT-MycACP (ituAL-ACP1) (Bacillus subtilis, UniProt Q93I56); assay: HPLC of fatty acyl-AMP formed ([…] nm); assay type: biochemical; conditions: 1 mM fatty acid, 1 mM ATP, 50 mM MgCl2, 50 mM HEPES pH 7.5, 0.01% Brij35, 30% DMSO, 30 °C, 30 min; 10 μM enzyme, apo-ACP
T1 construct: gene ituA; N-terminally His-tagged fusion of ItuAL (584 aa, RB14) with adjacent MycACP (ATCC6633); pET28a, E. coli BL21-AI; ACP in apo-form; catalytic pocket lies wholly in ItuAL; with Mycosubtilin synthase subunit A, first acyl carrier protein domain
T1 sequence (Q93I56 1-584): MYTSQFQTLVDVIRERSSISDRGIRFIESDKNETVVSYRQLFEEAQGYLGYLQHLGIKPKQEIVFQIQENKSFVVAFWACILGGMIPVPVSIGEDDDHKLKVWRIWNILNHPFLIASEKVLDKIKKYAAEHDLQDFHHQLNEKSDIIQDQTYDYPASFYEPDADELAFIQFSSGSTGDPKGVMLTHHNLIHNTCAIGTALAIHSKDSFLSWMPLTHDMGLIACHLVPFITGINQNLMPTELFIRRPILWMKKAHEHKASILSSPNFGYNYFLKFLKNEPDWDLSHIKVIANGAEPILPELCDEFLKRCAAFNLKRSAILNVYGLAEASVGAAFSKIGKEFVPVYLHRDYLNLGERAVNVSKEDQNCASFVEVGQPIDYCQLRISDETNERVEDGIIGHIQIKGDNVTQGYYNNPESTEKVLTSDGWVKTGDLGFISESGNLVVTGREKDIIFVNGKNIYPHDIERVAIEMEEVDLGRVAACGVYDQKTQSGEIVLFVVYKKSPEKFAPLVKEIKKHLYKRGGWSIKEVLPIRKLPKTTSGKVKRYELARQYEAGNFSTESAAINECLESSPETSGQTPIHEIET
T1 sequence (Q9R9J1 586-668 partner limits assumed): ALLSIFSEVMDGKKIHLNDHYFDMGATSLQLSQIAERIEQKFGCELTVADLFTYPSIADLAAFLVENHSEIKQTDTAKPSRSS

[2] = target: T2, (ituAL-ACP1) (Bacillus subtilis, UniProt Q93I56, F208G); assay: HPLC of fatty acyl-AMP formed ([…] nm); assay type: biochemical; conditions: 1 mM fatty acid, 1 mM ATP, 50 mM MgCl2, 50 mM HEPES pH 7.5, 0.01% Brij35, 30% DMSO, 30 °C, 30 min; 10 μM enzyme, apo-ACP
T2 construct: gene ituA; N-terminally His-tagged fusion of ItuAL (584 aa, RB14) with adjacent MycACP (ATCC6633); pET28a, E. coli BL21-AI; ACP in apo-form; catalytic pocket lies wholly in ItuAL; with Mycosubtilin synthase subunit A, first acyl carrier protein domain
T2 sequence (Q93I56 entry or part of it F208G, one chain of several): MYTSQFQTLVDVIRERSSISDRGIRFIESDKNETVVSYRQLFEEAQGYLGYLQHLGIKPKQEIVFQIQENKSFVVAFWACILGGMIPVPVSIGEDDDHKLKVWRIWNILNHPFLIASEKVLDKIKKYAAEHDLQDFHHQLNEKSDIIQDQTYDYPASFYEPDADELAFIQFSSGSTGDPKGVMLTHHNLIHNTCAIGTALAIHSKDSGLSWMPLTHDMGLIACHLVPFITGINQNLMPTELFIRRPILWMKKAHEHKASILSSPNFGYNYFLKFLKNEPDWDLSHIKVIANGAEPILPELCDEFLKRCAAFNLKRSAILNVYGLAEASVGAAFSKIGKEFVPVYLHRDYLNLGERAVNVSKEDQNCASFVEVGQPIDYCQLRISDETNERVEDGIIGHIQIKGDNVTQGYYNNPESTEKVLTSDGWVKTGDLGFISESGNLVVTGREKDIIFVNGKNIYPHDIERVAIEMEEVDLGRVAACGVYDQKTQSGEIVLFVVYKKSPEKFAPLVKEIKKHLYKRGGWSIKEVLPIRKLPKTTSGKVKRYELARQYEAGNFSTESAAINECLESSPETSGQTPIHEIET

CCCCCCCCCCCC(=O)O [C12, lauric acid]
relative activity (C10 = 100%) [1]: ItuAL_WT exhibited the highest activity against lauric acid (C12)

CCCCCCCCCCCCCCC(=O)O [C15, pentadecanoic acid]
relative activity (C10 = 100%) [2]: ItuAL_F208G exhibited the highest activity against pentadecanoic acid (C15)
